Experimental data reported in patent EP0421419A2, “Tocotrienols in the treatment of hypercholesterolemia, hyperlipidemia and thromboembolic disorders” (Bristol-Myers Squibb Company, priority 1989, dated 1991).

System: HMG-CoA reductase
Test: HepG2 cell culture model, HMG-CoA reductase suppression assay
Type: cell-based, human
Conditions: 10 µM, about 4 hours, HepG2 cells
Protocol: HMG-CoA reductase suppression in HepG2 cells was conducted by growing cells in RPMT-1640 plus 10% FBS on 100 mm plates, and when cells reached approximately 75% confluency, inducing with LDS (as described above) for about 16 hours prior to assays. Compounds were added using dimethylsulfoxide vehicle (0.5% v/v, final) and after about 4 hours of incubation at 37°, cells were harvested by scraping. Cell pellets were rinsed and lysed by sonication in 1.7 ml cold 50 mM imidazole-HCL, pH 7.2, 50 mM NaCl, 10 mM EDTA, 10 mM EGTA, 5 mM DTT, and 40µM leupeptin). Lysates were centriguged at 150 x g and the supernatant was centrifuged at 100,000 x g in a Beckman airfuge to isolate the post-nuclear total membrane fraction. The membranes were resuspended in 50 mM imidazole-HCl, pH 7.2, 250 mM NaCl, 5 mM DTT, and 20µM leupeptin and used for the assay of HMG-CoA reductase activity by the radiochemical procedure as described previously by Parker et al., J. Biol. Chem., 264: 4877-4887, (1989). Values were normalized for protein content by the Lowry method as cited previously (ibid). HMG-CoA reductase percent suppression was calculated as the decrease in specific activity of HMG-CoA reductase for treated cells vs. controls receiving vehicle. Averages of duplicate cell determinations assayed in duplicate were taken.
The human hepatoma HepG2 cell culture model was employed to compare the intrinsic activities of the tocotrienols. HepG2 cells were incubated with the indicated compounds for about 4 hours at 10 µM. Cholestrol synthesis was assayed by 14C-acetate incorporation and HMG-CoA reductase suppression was assayed in the isolated microsomal fraction. Cholesterol synthesis inhibition was assayed by 14C-acetate incorporation after preincubation of HepG2 cells with the compounds for about 2 hours or about 4 hours (Example IV). […] As the data in Figure 1 indicate, gamma-tocotrienol has an even greater relative potency compared to alpha-tocotrienol in the HepG2 cell model than in rat hepatocytes. The IC50s from these studies are given in Table 3, in which it can be seen that the intrinsic potency of gamma-tocotrienol is over 30-fold greater than that of alpha-tocotrienol.
The mechanism of cholesterol synthesis inhibition by tocotrienols involves down regulation of the limiting enzyme of sterol synthesis, HMG-CoA reductase. […] The suppression of HMG-CoA reductase protein expression by gamma-tocotrienol and delta-tocotrienol in HepG2 cells and in rat liver has been confirmed by immunoassy using the Western blot technique (data not shown).

Row | Structure (SMILES) | % Suppression HMG-CoA Reductase
1 | CC(C)=CCC/C(C)=C/CC/C(C)=C/CC[C@]1(C)CCc2cc(O)c(C)c(C)c2O1 [d-γ-tocotrienol] | 64%
2 | CC(C)=CCC/C(C)=C/CC/C(C)=C/CC[C@]1(C)CCc2cc(O)cc(C)c2O1 [d-δ-tocotrienol] | 65%
